These are literature values, as cited in patent US20050249806A1, “Combination of proton pump inhibitor, buffering agent, and nonsteroidal anti-inflammatory drug” (Santarus, Inc., priority 2004, published 2005).

Conditions in the first series: not given
On to `COc1ccc2[nH]c([S+]([O-])Cc3ncc(C)c(OC)c3C)nc2c1` (stereo not shown) [omeprazole], for which the water solubility result is on record as “poor water solubility”.

For another series the following is noted: pharmacokinetic half-life.
As a reminder, the half-life is the time in which the quantity being followed falls by half. As to `CCc1cccc2c3c([nH]c12)C(CC)(CC(=O)O)OCC3` (stereo not shown) [etodolac], the half-life result was “about 7 hours”.
Consider `CC(C(=O)O)c1ccc(-c2ccccc2)c(F)c1` (stereo not shown) [flurbiprofen], for which the half-life entry is listed as “about 6 hours”.
For `O=C(c1ccccc1)c1ccc2n1CCC2C(=O)O` (stereo not shown) [ketorolac], the half-life is 8 to 9 h.
With `Cc1cccc(Nc2ccccc2C(=O)O)c1C` [mefenamic acid], the half-life result is “up to 4 hours”.
As for `COc1ccc2cc(CCC(C)=O)ccc2c1` [nabumetone], the half-life was 22 to 30 h.
Regarding `O=C(O)CCc1nc(-c2ccccc2)c(-c2ccccc2)o1` [oxaprozin], the half-life was 42 to 50 h.
